We go through 22 compounds from patent US8980954B2, “Substituted cis- and trans-stilbenes as therapeutic agents” (STC.UNM, priority 2006, dated 2015).

Assay [1] concerns NF-κB. To be noted: cited from earlier work.
The test system of assay [2] is NF-κB. The assay can be described thus: Inhibition of the TNFα-induced activation of NF-κB, 293T/NF-κB-luc luciferase reporter cell assay. Format: cell-based, human. The conditions noted are these: 7 hours; for activity as inhibitor of the TNFα-induced activation of NF-κB in the preliminary screen: screened at 15 μM, FIGS. 1-5; for IC50: Homo sapiens, HEK-293T, 293T/NF-κB-luc cells, TNFα 20 ng/ml, triplicate, read-out: IC50 for inhibition of the TNFα-induced activation of NFκB. Here is the method:
The cells were maintained in Dulbecco's Modified Eagle's Medium (DMEM—high glucose containing 4 mM glutamine) supplemented with 10% fetal bovine serum (FBS), 1 mM sodium pyruvate, 100 units/ml penicillin, 100 μg/ml streptomycin and 100 μg/ml hygromycin (Gibco/Invitrogen, Carlsbad, Calif.) to maintain cell selection. […] The following day cells were fed fresh media 1 hour prior to treatment. […] Plate wells were gently washed with phosphate buffered saline, pH 7.4, and lysed with 1x passive lysis buffer (Promega, Madison, Wis.). The subsequent lysates were analyzed with the Luciferase Assay System (Promega) utilizing a TD-20/20 luminometer (Turner Designs, Sunnyvale, Calif.). The firefly luciferase relative light units were normalized to protein (mg/ml) with BCA™ Protein Assay Kit (Pierce, Rockford, Ill.) and standardized to percent of control (TNFα control).

The next assay relates to AP-1. Nature of the assay: Inhibition of the TPA-induced activation of AP-1, 293T/AP-1-luc luciferase reporter cell assay. To be noted: 293T/AP-1-luc cells, TPA 10 ng/ml, 24 hours; for IC50: Homo sapiens. Format: cell-based, human. How it is done: An AP-1 reporter stable cell line derived from human 293T embryonic kidney cells transfected with a luciferase reporter construct containing three AP-1 binding sites in the promoter (293T/AP-1-luc, Panomics, Inc., Redwood City, Calif.) was grown in a humidified atmosphere at 37° C. in 5% CO2/95% air. The cells were maintained in Dulbecco's Modified Eagle's Medium (DMEM—high glucose containing 4 mM glutamine) supplemented with 10% fetal bovine serum (FBS), 1 mM sodium pyruvate, 100 units/ml penicillin, 100 μg/ml streptomycin and 100 μg/ml hygromycin (Gibco/Invitrogen, Carlsbad, Calif.) to maintain cell selection. One day prior to treatment, the 293T/AP-1-luc cells were plated into 24-well cell culture plates (Costar, Cambridge, Ma.) in the above media without hygromycin. The following day, the cells, which were at approximately 60% confluency, were fed fresh media with or without TPA, 10 ng/ml, (Calbiochem) and immediately treated with curcumin or analog prepared in DMSO stock solutions. The cells were placed again in a humidified atmosphere at 37° C. in 5% CO2/95% air for 24 hours. Plate wells were gently washed with phosphate buffered saline, pH 7.4, and lysed with 1x passive lysis buffer (Promega, Madison, Wis.). The subsequent lysates were analyzed with the Luciferase Assay System (Promega) utilizing a TD-20/20 luminometer (Turner Designs, Sunnyvale, Calif.). The firefly luciferase relative light units were normalized to protein (mg/ml) with BCA™ Protein Assay Kit (Pierce, Rockford, Ill.) and standardized to percent of control (TPA control).
A general note: Reporter assays use an easily measured gene product as a stand-in for the process of interest.

In a further assay the test system is COX-2 mRNA. Nature of the assay: Inhibition of LPS-induced expression of COX-2 mRNA in BV-2 microglial cells (qRT-PCR). It is filed as cell-based, mouse. The conditions noted are these: BV-2 cells, LPS 0.2 μg/ml, 24 hours; for inhibition of LPS-induced COX-2 mRNA compared with resveratrol: 0.15 μM. (In general: Real-time PCR tracks product formation cycle by cycle.)

Assay [3] in a line: FRAP assay (ferric reducing/anti-oxidant power). The source says: (§1) The total radical-trapping anti-oxidant parameter assay (TRAP assay) measures the ability of an analog to react with the pre-formed radical monocation of 2,2′-azinobis-(3-ethylbenzothiazoline-6-sulfonic acid) (ABTS-^+). The ferric reducing/anti-oxidant power assay (FRAP assay) measures the ability of an analog to reduce a ferric tripyridyltriazine complex.
(§2) In both colorimetric assays, the vitamin E analog Trolox was used as a control.
The anti-oxidant activities of certain stilbene analogs according to the present invention were determined using two standard assays. See, Schlesier, et al., Free Rad Res. 2002;36:177-187. The total radical-trapping anti-oxidant parameter assay (TRAP assay) measures the ability of an analog to react with the pre-formed radical monocation of 2,2′-azinobis-(3-ethylbenzothiazoline-6-sulfonic acid) (ABTS^+). See, Re, et al., Free Rad Biol Med, 26:1231-1237 (1999). […] The activities of curcumin and analogs were determined by their abilities to quench the color of the radical cation. […] The ferric complex of 2,4,6-tripyridyl-s-triazine was prepared at acidic pH, and the anti-oxidant activities of curcumin and analogs were determined by their abilities to reduce the ferric complex to the ferrous complex, monitored by formation of the ferrous complex at 593 nm. […]

Assay [4] in a line: TRAP assay (total radical-trapping anti-oxidant parameter).
Source text: as §1, §2
The anti-oxidant activities of certain stilbene analogs according to the present invention were determined using two standard assays. See, Schlesier, et al., Free Rad Res. 2002;36:177-187. The total radical-trapping anti-oxidant parameter assay (TRAP assay) measures the ability of an analog to react with the pre-formed radical monocation of 2,2′-azinobis-(3-ethylbenzothiazoline-6-sulfonic acid) (ABTS^+). See, Re, et al., Free Rad Biol Med, 26:1231-1237 (1999). ABTS was reacted with potassium persulfate in the dark, overnight, to generate the colored ABTS^+ radical cation, which has an absorption maximum at 734 nm. The activities of curcumin and analogs were determined by their abilities to quench the color of the radical cation. The ferric reducing/anti-oxidant power assay (FRAP assay) measures the ability of an analog to reduce a ferric tripyridyltriazine complex. See, Benzie and Strain, Meth Enzymol, 299:15-27 (1999). The ferric complex of 2,4,6-tripyridyl-s-triazine was prepared at acidic pH, and the anti-oxidant activities of curcumin and analogs were determined by their abilities to reduce the ferric complex to the ferrous complex, monitored by formation of the ferrous complex at 593 nm. In both colorimetric assays, the vitamin E analog Trolox was used as a control.

`C(=Cc1ccccc1)c1ccccc1` [stilbene]: the “inhibition of TNF-induced activation of NF-κB (literature)” value in the assay on NF-κB [1] is “inactive”.
`COc1cccc(/C=C/c2ccccc2)c1OC` [4o, (E)-2,3-Dimethoxystilbene]: the “activity as inhibitor of the TNFα-induced activation of NF-κB in the preliminary screen” value (from here on “activity as inhibitor”) in the assay with NF-κB [2] was “retained very little activity”.
In turn, `CCOc1ccc(/C=C/c2ccccc2)cc1` [4k, (E)-4-Ethoxystilbene] came in with an IC50 in the assay on AP-1 of 800 ± 100 nM.
For the compound `COc1ccc(/C=C/c2ccc(O)c(O)c2)cc1` [6x, (E)-3,4-Dihydroxy-4′-methoxystilbene], in the assay on NF-κB [2], the IC50 turned out to be 600 ± 400 nM and the “activity as inhibitor” value is “considerably more active than resveratrol”.
As for `CN(C)c1ccc(/C=C/c2ccccc2)cc1` [4cc, (E)-4-N,N-Dimethylaminostilbene], in the assay with COX-2 mRNA, the “inhibition of LPS-induced COX-2 mRNA compared with resveratrol” value is “almost as effective as 4 μM resveratrol”. In addition, the IC50 was determined as 1100 ± 100 nM in the assay with AP-1 and 150 nM in the assay with NF-κB [2]. Further, in assay [3], the “anti-oxidant activity in the FRAP assay” value was “exhibits anti-oxidant activity”. For the same compound, in assay [4], the “anti-oxidant activity in the TRAP assay” value is recorded as “exhibits anti-oxidant activity”. Further, in assay [4], the “anti-oxidant activity (TRAP or FRAP assay, not told apart)” value is given as “retained anti-oxidant activity”.
For the compound `COc1ccc(/C=C/c2cccc(C)c2)cc1` [6i, (E)-4′-Methoxy-3-methylstilbene], the IC50 with AP-1 was found to be 1000 ± 120 nM; in the assay with NF-κB [2], 800 ± 200 nM.
For `COc1ccc(/C=C/c2cccc(F)c2)cc1` [6n, (E)-3-Fluoro-4′-methoxystilbene], half-maximal inhibition in the assay on AP-1 (IC50) required 500 ± 100 nM.
Consider `COc1ccc(/C=C/c2ccccc2F)cc1` [6p, (E)-2-Fluoro-4′-methoxystilbene], for which the “inhibition of LPS-induced COX-2 mRNA compared with resveratrol” value with COX-2 mRNA is listed as “almost as effective as 4 μM resveratrol”. In addition, the values for the IC50 with AP-1 and in the assay on NF-κB [2] were 800 ± 100 nM and 150 nM, respectively. Besides, the “anti-oxidant activity (TRAP or FRAP assay, not told apart)” value in assay [4] is “does not exhibit anti-oxidant activity”.
Regarding `COc1ccc(/C=C/c2ccccc2)c(OC)c1` [4u, (E)-2,4-Dimethoxystilbene], in the assay with NF-κB [2], the “activity as inhibitor” value was “especially active”.
As to `COc1ccc(/C=C/c2ccc(C)cc2)cc1` [6d, (E)-4′-Methoxy-4-methylstilbene], the IC50 with AP-1 was found to be 800 ± 30 nM; in the assay on NF-κB [2] it was 900 ± 100 nM.
As to `COc1ccc(/C=C/c2ccccc2)cc1` [4b, (E)-4-Methoxystilbene], the midpoint of inhibition in the assay on AP-1, the IC50, lay at 1300 ± 30 nM. For the same compound, the “activity as inhibitor” value in the assay with NF-κB [2] is on record as “especially active”.
For the compound `COc1ccc(/C=C/c2cc(OC)cc(OC)c2)cc1` [6f, (E)-3,4′,5-Trimethoxystilbene], the half-inhibitory concentration (IC50) with AP-1 amounted to 3800 ± 1100 nM. Also, the “activity as inhibitor” value in the assay with NF-κB [2] is reported as “especially active”.
On to `COc1ccc(/C=C/c2ccccc2)cc1O` [4s, (E)-3-Hydroxy-4-methoxystilbene], for which, in the assay with NF-κB [2], the “activity as inhibitor” value is reported as “considerably more active than resveratrol”.
`COc1ccc(/C=C/c2ccccn2)cc1` returned an IC50 with AP-1 of 2100 ± 400 nM.
Regarding `COc1ccc(/C=C/c2ccccc2Cl)cc1` [6j, (E)-2-Chloro-4′-methoxystilbene], the IC50 in the assay with NF-κB [2] was 1500 ± 30 nM.
As to `COc1ccc(/C=C/c2cccc(Cl)c2)cc1` [6h, (E)-3-Chloro-4′-methoxystilbene], the IC50 came out at 800 ± 150 nM with AP-1 and 1000 ± 100 nM in the assay with NF-κB [2].
Take `COc1ccc(/C=C/c2cccc(OC)c2)cc1` [6r, (E)-3,4′-Dimethoxystilbene]: the IC50 was determined as 700 ± 40 nM in the assay with AP-1 and 600 ± 100 nM with NF-κB [2]. In the assay on NF-κB [2], the “activity as inhibitor” value is reported as “especially active”.
On to `Cc1ccc(/C=C/c2ccccc2)cc1` [4d, (E)-4-Methylstilbene], for which, in the assay on AP-1, half-maximal inhibition (IC50) required 1600 ± 600 nM.
As to `COc1ccc(/C=C/c2cccc(O)c2O)cc1` [6cc, (E)-2,3-Dihydroxy-4′-methoxystilbene], in the assay with NF-κB [2], the “activity as inhibitor” value is “considerably more active than resveratrol”.
`Oc1ccc(/C=C/c2cc(O)cc(O)c2)cc1` [resveratrol, 3,4′,5-trihydroxystilbene, reference compound]: the “inhibition of LPS-induced COX-2 mRNA” value in the assay with COX-2 mRNA (4 μM) is “about 50%”. Moreover, the “suppression of LPS-induced COX-2 mRNA” value with COX-2 mRNA (20 μM) was “markedly suppressed”. Besides, the “inhibition of TNF-induced activation of NF-κB (literature)” value in the assay with NF-κB [1] is on record as “inhibits TNF-induced activation of NF-κB”. For the same compound, the “effect on TPA-induced AP-1 activation” value with AP-1 is on record as “activated”. In the assay with NF-κB [2], the 50% inhibitory concentration (IC50) is 20000 ± 3000 nM.
Turning to `COc1ccc(/C=C/c2cccc(OC)c2OC)cc1` [6o, (E)-2,3,4′-Trimethoxystilbene], the IC50 with AP-1 was 2400 ± 700 nM. The “activity as inhibitor” value in the assay on NF-κB [2] is listed as “especially active”.
As for `COc1ccc(/C=C/c2ccc(OC)cc2)cc1` [6b, (E)-4,4′-Dimethoxystilbene], in the assay on NF-κB [2], the “activity as inhibitor” value was “retained very little activity”.

As a reminder, the IC50 is the midpoint of a concentration-inhibition curve.
